In patent EP1579856A1 (LABORATOIRES BESINS INTERNATIONAL, priority 2004, dated 2005):
Like-named read-outs stand apart in the source and are kept apart here. Marks after values point to notes of the source that are not given here.

Legend:
[1] = in vivo
Procedure: Each participant applied the gel daily for the duration of two menstrual cycles.
On the first day of the following menstruation, treatment, which consisted of daily application of the gel over two menstrual cycles, began. Blood samples were collected 24 hours following the morning application of gel on days 7, 20 and 25 of the first and second cycles. On the last day of administration, day 25 of the second menstrual cycle, serial blood samples were collected prior to application and at 0.5, 1, 1.5, 2, 3, 4, 6, 12, 18, 24, 36, 48, and 72 hours after application of the gel.

[2] = percutaneous dose of 1 mg/breast/day; cited from earlier work
clinical = experiment: clinical; set-up: species or system women; settings: in vivo
Procedure: At the end of a menstrual cycle, each patient received a single dose, after which serial blood samples were collected at 0, 0.5, 1, 1.5, 2, 3, 4, 6, 12, 18, 24, 36, 48, and 72 hours.

[3] = in vivo; remark: listed apart in the source
Procedure: (§1) The patients received [^3H]-labeled drug applied directly on the affected breasts at specified intervals ranging from 12 hours to 7 days before surgery to excise diseased tissue. Breast tissue from three regions: the tumor, tissue immediately surrounding the tumor, and normal tissue, was excised and immediately frozen in liquid nitrogen. Additionally, plasma and urine samples were obtained at scheduled intervals and frozen until analysis.

[4] = Group 2: 4-OHT gel (20 mg/100 g) 0.5 mg/day, both breasts, 3-4 weeks; n=5; cited from earlier work
[5] = in vivo; remark: listed apart in the source
Procedure: as §1

rat liver = settings: in vivo; cited from earlier work
estrone sulphatase = target: T1, estrone sulphatase (Homo sapiens, UniProt P08842); settings: mammary cancer cell lines; cited from earlier work
T1 construct: estrone sulphatase activity in mammary cancer cell lines; endogenous in cells
T1 sequence (P08842 22-583): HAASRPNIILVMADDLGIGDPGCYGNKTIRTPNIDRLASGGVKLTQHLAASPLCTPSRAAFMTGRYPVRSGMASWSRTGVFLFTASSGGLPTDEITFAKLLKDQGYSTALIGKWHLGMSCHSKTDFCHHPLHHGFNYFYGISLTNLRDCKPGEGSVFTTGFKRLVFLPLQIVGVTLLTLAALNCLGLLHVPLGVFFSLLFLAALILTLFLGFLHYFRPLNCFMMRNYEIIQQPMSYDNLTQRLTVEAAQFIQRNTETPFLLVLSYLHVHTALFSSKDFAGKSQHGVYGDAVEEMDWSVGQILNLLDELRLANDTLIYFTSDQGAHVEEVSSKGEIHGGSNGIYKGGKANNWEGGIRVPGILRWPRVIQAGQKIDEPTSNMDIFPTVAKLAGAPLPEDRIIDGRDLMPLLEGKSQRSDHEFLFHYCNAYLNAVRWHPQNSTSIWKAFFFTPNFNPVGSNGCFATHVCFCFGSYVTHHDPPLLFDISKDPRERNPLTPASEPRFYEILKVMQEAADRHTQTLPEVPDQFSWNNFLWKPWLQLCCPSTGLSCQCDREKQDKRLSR

[6] = in vivo; remark: listed apart in the source
Procedure: as §1

estrogen receptors = settings: more affinity than tamoxifen; cited from earlier work
[7] = Example 1 follow-up study: radioactivity and metabolites in blood
Procedure: as §1

[8] = system: normal human epithelial breast cells; settings: more than Z-tamoxifen; cited from earlier work
[9] = Example 1 follow-up study: radioactivity and metabolites in breast tissue after percutaneous application; settings: for % Metabolites in Breast Tissue: breast tumor tissue
Procedure: as §1

[10] = cited from earlier work
[11] = cited from earlier work; remark: listed apart in the source
[12] = system: p53(-) normal human mammary epithelial cells; settings: cited from earlier work
[13] = oral tamoxifen group, 20 mg/day

CCC(=C(c1ccc(O)cc1)c1ccc(OCCN(C)C)cc1)c1ccccc1 [4-hydroxy tamoxifen, 1-[4-(2-N-dimethylaminoethoxy)phenyl]-1-(4-hydroxyphenyl)-2-phenylbut-1-ene]
laboratory or clinical evidence of systemic effects [1]: no detectable | 4-hydroxy tamoxifen concentration in breast tissue exceeds normal estradiol concentrations in breast tissue by a factor of [2]: 4 | t1/2 (Range) (clinical; human, topical or ocular): (49 - 101) hr | half-life (clinical; human, topical or ocular, t1/2 (Range)): 58 to 118 h | patients with detectable plasma concentrations (>5 pg/mL) (clinical): 6 of 12 | distribution within breast tissue [3]: concentrated predominantly in the cytosolic and nuclear fractions of breast tissue | metabolism in intracellular sites of breast tissue [3]: remained unmetabolized except for limited isomerization from the Z to the E form | retention in the breast [3]: approximately 4 days | Mean ± SD 4-hydroxy tamoxifen (Range), Plasma Concentrations, Day Pre-Surgery [4]: 0 (0 - 0)^a pg/mL | peak urinary elimination [5]: later time | rat liver carcinogen (rat liver): not | inhibitory effect on estrone sulphatase activity (estrone sulphatase): significant inhibitory effect | % of radioactivity in blood represented by [6]: 68% | affinity for estrogen receptors (estrogen receptors): 100 fold

CCC(=C(c1ccc(O)cc1)c1ccc(OCCNC)cc1)c1ccccc1 [N-Desmethyl-4-Hydroxy Tamoxifen]
% of radioactivity in blood represented by ([7]; 24 hours after percutaneous administration of [3H]-4-hydroxy tamoxifen): 18%

CC/C(=C(\c1ccc(O)cc1)c1ccc(OCCN(C)C)cc1)c1ccccc1 [Z-4-hydroxy tamoxifen]
inhibits the growth in culture of normal human epithelial breast cells [8]: 100 fold

CC/C(=C(\c1ccccc1)c1ccc(OCCN(C)C)cc1)c1ccccc1 [[^3H]-tamoxifen, reference compound]
plateau of radioactivity in blood ([7]; percutaneous application): 2 days

CC/C(=C(\c1ccccc1)c1ccc(OCCN(C)C)cc1)c1ccccc1 [tamoxifen]
% Metabolites in Breast Tissue ([9]; Day 4 after percutaneous administration of Z-[3H]-4-hydroxy tamoxifen to the affected breast): <1% | % Metabolites in Breast Tissue ([9]; Day 7 after percutaneous administration of Z-[3H]-4-hydroxy tamoxifen to the affected breast): 2% | retention in the breast ([9]; percutaneous application of [3H]-labeled drug): shorter and far weaker | side effects reported by one person ([10]; Group 2 (0.5 mg/day gel): seventh day of treatment, Group 1 (oral tamoxifen): fifth day of treatment): hot flashes and mild vaginitis | anti-thrombin III and fibrinogen, pre- versus post treatment [10, 13]: statistically significant decrease | platelet and lymphocyte counts, pre- versus post treatment [10, 13]: statistically significant increase | decrease of risk of benign breast disease ([11]; cyst): 34% | decrease of risk of benign breast disease ([11]; duct ectasia): 28% | decrease of risk of benign breast disease ([11]; fibrocystic disease): 33% | decrease of risk of benign breast disease ([11]; hyperplasia): 40% | reduces the risk of developing benign breast disease ([11]; overall): 28% | reduction of the need for breast biopsies ([11]; women under 50): 41% | rat liver carcinogen (rat liver): potent rat liver carcinogen | initiates apoptosis [12]: initiates apoptosis | inhibitory effect on estrone sulphatase activity (estrone sulphatase): little or no effect
